Results: patent US20050165104A1, “Biocidal agents and veterinary methods” (priority 2002, published 2005)
Like-named read-outs stand apart in the source and are kept apart here. Marks after values point to notes of the source that are not given here. Values belong to the compound of their own block, whether it stands above or below them.

Key:
[1] = pH of the tested solution; type: physicochemical
Beta Streptococcus = test: Antimicrobial Diffusion Test (blood agar plate, zone of inhibition); type: cell-based; settings: for zone of inhibition at 10000 µM / zone of inhibition at 100000 µM: Streptococcus, read-out: Inhibition, Beta Strep (zone of inhibition / relative potency); for zone of inhibition at 10000 µM: 0.01M (extracts: 0.01M total components)
Description: (§1) The Antimicrobial Diffusion Test is used to determine the ability of a compound to inhibit growth of an organism. During the course of the test, each compound is treated as an unknown solution with an assigned number. After the data have been collected, the identity of the compound is assigned. In the test, a blood agar plate is inoculated with a known stock organism (fungus or bacteria). One drop of a numbered solution is applied to a freshly inoculated agar plate. A single numbered solution is applied per organism on a plate. The inoculated plate is examined on a daily basis for growth of the organism.
(§2) Areas of no microbial growth, or zones of inhibition are measured in millimeters and documented. If the plate is entirely covered with organism growth, there is no measurable zone of inhibition. After all zones of inhibition with the corresponding organisms and the solution number tested for sensitivity have been documented, each solution number is replaced by the correct solution name. The zones of inhibition are then used to establish relative in vitro resistance and sensitivity of the organism to the solution.

Candida albicans = test: as above; type: cell-based
Description: as §1, §2

Escherichia coli = test: as above; type: cell-based
Description: as §1, §2

Aspergillus fumigatus = test: as above; type: cell-based
Description: as §1, §2

Trichophyton rubrum = test: as above; type: cell-based
Description: as §1, §2

Staphylococcus aureus = test: as above; type: cell-based
Description: as §1, §2

[2] = system: Candida albicans, Staphylococcus aureus, Beta Streptococcus, Escherichia coli, Aspergillus fumigatus, and Trichophyton rubrum; test: Antimicrobial Diffusion Test, all organisms tested; type: cell-based; settings: for specificity of inhibitory activities over the organisms tested (in words): summary of Table 1
Description: as §1, §2
Table 1 provides data comparing the efficacy of a number of different antimicrobial compounds of the present invention. Compounds were assayed at varying concentrations using the Antimicrobial Diffusion Test described above. Summary for data on the following compounds is listed: 3-n-propylphenol, 3-pentylphenol, 5-propylresorcinol, 3-isobutylphenol, 4-hexylresorcinol, phenol, phenylacetic acid, 3-hydroxoctanoic acid, a reconstituted metapleural gland secretion from Atta sexdens worker ant, a reconstituted metapleural gland secretion from Atta sexdens soldier ant, a reconstituted metapleural gland secretion from Atta cephalotes worker ant, a reconstituted metapleural gland secretion from Atta cephalotes soldier ant, metapleural gland secretion from C. deformis, Mycocide, Tineacide, and Penlac. […]

[3] = test solution 0.1M (extracts: 0.1M total components)
[4] = 0.1M (extracts: 0.1M total components)
[5] = 0.1M (extracts: 0.1M total components), higher number = greater inhibition
[6] = test solution 0.01M (extracts: 0.01M total components)
[7] = 0.1M (extracts: 0.1M total components), value unmarked
[8] = 0.01M, value marked * (footnote not given)
[9] = 0.1M (extracts: 0.1M total components), value marked ** (footnote not given)
[10] = 0.1M, value marked * (footnote not given)
[11] = 0.01M (extracts: 0.01M total components)

pH [1, 3]: 6
Structure (SMILES): CCCCCC(O)CC(=O)O (centres unmarked) [3-hydroxoctanoic acid]
Inhibition, Beta Strep (zone of inhibition / relative potency) (Beta Streptococcus; [4]): 12 mm
Inhibition, Candida Albicans (zone of inhibition / relative potency) (Candida albicans; [5]): 12 mm
Inhibition, E. coli (zone of inhibition / relative potency) (Escherichia coli; [4]): 13 mm

pH [1, 6]: 6.5
pH [1, 3]: 6
Structure (SMILES): CCCCCCCC(O)CC(=O)O (centres unmarked) [3-hydroxydecanoic acid]
Inhibition, Asp fumigatus (zone of inhibition / relative potency) (Aspergillus fumigatus; [4]): 13 mm
Inhibition, T. rubrum (zone of inhibition / relative potency) (Trichophyton rubrum; [7]): 12 mm
zone of inhibition at 10000 µM (Beta Streptococcus): 12 mm
zone of inhibition at 100000 µM (Beta Streptococcus; [4]): 11 mm
Inhibition, Staph aureus (zone of inhibition / relative potency) (Staphylococcus aureus; [4]): 12 mm
Inhibition, Candida Albicans (zone of inhibition / relative potency) (Candida albicans; [5]): 15 mm
Inhibition, E. coli (zone of inhibition / relative potency) (Escherichia coli; [4]): 13 mm

pH [1, 6]: 6.5
pH [1, 3]: 6
Structure (SMILES): CCCCCCCCCC(O)CC(=O)O (centres unmarked) [3-hydroxydodecanoic acid]
Inhibition, Asp fumigatus (zone of inhibition / relative potency) (Aspergillus fumigatus; [4]): 7 mm
Inhibition, T. rubrum (zone of inhibition / relative potency) (Trichophyton rubrum; 0.01M, value unmarked): 10 mm
Inhibition, T. rubrum (zone of inhibition / relative potency) (Trichophyton rubrum; [7]): 14 mm
zone of inhibition at 100000 µM (Beta Streptococcus; [4]): 10 mm
Inhibition, Staph aureus (zone of inhibition / relative potency) (Staphylococcus aureus; [4]): 9 mm
Inhibition, Candida Albicans (zone of inhibition / relative potency) (Candida albicans; [5]): 8 mm
Inhibition, E. coli (zone of inhibition / relative potency) (Escherichia coli; [4]): 10 mm

pH [1, 6]: 6.5
pH [1, 3]: 6.5
Structure (SMILES): CCCc1cccc(O)c1 [3-n-propylphenol]
specificity of inhibitory activities over the organisms tested (in words) [2]: ability to inhibit growth of all organisms tested
Inhibition, Asp fumigatus (zone of inhibition / relative potency) (Aspergillus fumigatus; [4]): 10 mm
Inhibition, T. rubrum (zone of inhibition / relative potency) (Trichophyton rubrum; [8]): 12* mm
Inhibition, T. rubrum (zone of inhibition / relative potency) (Trichophyton rubrum; [9]): 14 mm
Inhibition, T. rubrum (zone of inhibition / relative potency) (Trichophyton rubrum; [10]): 21 mm
zone of inhibition at 100000 µM (Beta Streptococcus; [4]): 15 mm
Inhibition, Staph aureus (zone of inhibition / relative potency) (Staphylococcus aureus; [4]): 14 mm
Inhibition, Candida Albicans (zone of inhibition / relative potency) (Candida albicans; [11]): 13 mm
Inhibition, Candida Albicans (zone of inhibition / relative potency) (Candida albicans; [5]): 13 mm
Inhibition, E. coli (zone of inhibition / relative potency) (Escherichia coli; [4]): 17 mm

pH [1, 6]: 6.5
pH [1, 3]: 6.5
Structure (SMILES): CCCCCc1cccc(O)c1 [3-pentylphenol]
spectrum of effectiveness on the microorganisms tested (in words) ([2]; 0.1M, Table 1 row 3): exceptional broad spectrum effectiveness
specificity of inhibitory activities over the organisms tested (in words) [2]: ability to inhibit growth of all organisms tested
Inhibition, Asp fumigatus (zone of inhibition / relative potency) (Aspergillus fumigatus; 0.01M): 9 mm
Inhibition, Asp fumigatus (zone of inhibition / relative potency) (Aspergillus fumigatus; [4]): 25 mm
inhibition of Aspergillus fumigatus growth (in words) (Aspergillus fumigatus; 0.1 M, FIG. 5): effective at inhibiting Aspergillus fumigatus growth
Inhibition, T. rubrum (zone of inhibition / relative potency) (Trichophyton rubrum; [8]): 16* mm
Inhibition, T. rubrum (zone of inhibition / relative potency) (Trichophyton rubrum; [9]): 45 mm
side-by-side comparison against Penlac 0.1M on Trichophyton rubrum (in words) (Trichophyton rubrum; 0.1M each): unexpectedly superior
Inhibition, T. rubrum (zone of inhibition / relative potency) (Trichophyton rubrum; [10]): 65 mm
zone of inhibition at 10000 µM (Beta Streptococcus): 15 mm
zone of inhibition at 100000 µM (Beta Streptococcus; [4]): 18 mm
Inhibition, Staph aureus (zone of inhibition / relative potency) (Staphylococcus aureus; 0.01M): 14 mm
Inhibition, Staph aureus (zone of inhibition / relative potency) (Staphylococcus aureus; [4]): 18 mm
Inhibition, Candida Albicans (zone of inhibition / relative potency) (Candida albicans; [11]): 15 mm
Inhibition, Candida Albicans (zone of inhibition / relative potency) (Candida albicans; [5]): 21 mm
Inhibition, E. coli (zone of inhibition / relative potency) (Escherichia coli; 0.01M): 16 mm
Inhibition, E. coli (zone of inhibition / relative potency) (Escherichia coli; [4]): 15 mm

pH [1, 6]: 6.5
pH [1, 3]: 6.5
Structure (SMILES): CCCCCCc1ccc(O)cc1O [4-hexylresorcinol]
Inhibition, Asp fumigatus (zone of inhibition / relative potency) (Aspergillus fumigatus; 0.01M): 16 mm
Inhibition, Asp fumigatus (zone of inhibition / relative potency) (Aspergillus fumigatus; [4]): 20 mm
Inhibition, T. rubrum (zone of inhibition / relative potency) (Trichophyton rubrum; [8]): 29* mm
Inhibition, T. rubrum (zone of inhibition / relative potency) (Trichophyton rubrum; [10]): 38* mm
zone of inhibition at 10000 µM (Beta Streptococcus): 16 mm
zone of inhibition at 100000 µM (Beta Streptococcus; [4]): 17 mm
Inhibition, Staph aureus (zone of inhibition / relative potency) (Staphylococcus aureus; 0.01M): 16 mm
Inhibition, Staph aureus (zone of inhibition / relative potency) (Staphylococcus aureus; [4]): 15 mm
Inhibition, Candida Albicans (zone of inhibition / relative potency) (Candida albicans; [11]): 19 mm
Inhibition, Candida Albicans (zone of inhibition / relative potency) (Candida albicans; [5]): 20 mm
Inhibition, E. coli (zone of inhibition / relative potency) (Escherichia coli; 0.01M): 17 mm
Inhibition, E. coli (zone of inhibition / relative potency) (Escherichia coli; [4]): 15 mm

Structure (SMILES): CCCCCc1cc(O)cc(O)c1 [5-pentylresorcinol]
pH [1, 3]: 6.5
Inhibition, Asp fumigatus (zone of inhibition / relative potency) (Aspergillus fumigatus; [4]): 20 mm
Inhibition, T. rubrum (zone of inhibition / relative potency) (Trichophyton rubrum; [10]): 47* mm
zone of inhibition at 100000 µM (Beta Streptococcus; [4]): 20 mm
Inhibition, Staph aureus (zone of inhibition / relative potency) (Staphylococcus aureus; [4]): 16 mm
Inhibition, Candida Albicans (zone of inhibition / relative potency) (Candida albicans; [5]): 19 mm
Inhibition, E. coli (zone of inhibition / relative potency) (Escherichia coli; [4]): 17 mm

Structure (SMILES): CCCc1cc(O)cc(O)c1 [5-propylresorcinol]
pH [1, 3]: 6.5
Inhibition, T. rubrum (zone of inhibition / relative potency) (Trichophyton rubrum; [10]): 14* mm
zone of inhibition at 100000 µM (Beta Streptococcus): 14 mm
Inhibition, Candida Albicans (zone of inhibition / relative potency) (Candida albicans; [5]): 14 mm
Inhibition, E. coli (zone of inhibition / relative potency) (Escherichia coli; [4]): 15 mm

Structure (SMILES): O=C(O)Cc1c[nH]c2ccccc12 [indoleacetic acid]
zone of inhibition at 100000 µM (Beta Streptococcus; [4]): 6 mm
